Assay results published in PubChem BioAssay (NCI).
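The compound was tested at five concentrations on cells cultured in 96-well plates, with a 48-hour exposure period. GI50 is the concentration that inhibits growth by half. TGI: concentration producing complete growth inhibition.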

Tests used:
Assay in all cases: inhibition of tumour cell growth, NCI panel, 48 h
NCI-H522 lung = tested on: NCI-H522 lung
A549 NSCLC = tested on: A549 NSCLC
UACC-257 melanoma = tested on: UACC-257 melanoma
OVCAR-8 ovarian = tested on: OVCAR-8 ovarian
BT-549 breast = tested on: BT-549 breast
MCF7 breast = tested on: MCF7 breast
NCI-H226 lung = tested on: NCI-H226 lung
U251 CNS = tested on: U251 CNS
M19-MEL melanoma = tested on: M19-MEL melanoma
LXFL 529 NSCLC = tested on: LXFL 529 NSCLC

Row | Structure (SMILES) | GI50 (NCI-H522 lung) | TGI (NCI-H522 lung) | GI50 (A549 NSCLC) | TGI (A549 NSCLC) | GI50 (UACC-257 melanoma) | TGI (UACC-257 melanoma) | GI50 (OVCAR-8 ovarian) | TGI (OVCAR-8 ovarian) | GI50 (BT-549 breast) | TGI (BT-549 breast) | GI50 (MCF7 breast) | TGI (MCF7 breast) | GI50 (NCI-H226 lung) | TGI (NCI-H226 lung) | GI50 (U251 CNS) | TGI (U251 CNS) | TGI (M19-MEL melanoma) | TGI (LXFL 529 NSCLC)
1 | CN(C)c1ccc(/C=N/NC(=O)c2cccc3ccccc23)c(Cl)c1 | 1.12 µM | 39.4 µM | 0.926 µM | > 100 µM | 1.07 µM | 97.5 µM | 3.29 µM | > 100 µM | 0.733 µM | > 100 µM | 0.348 µM | > 100 µM | 12.3 µM | > 100 µM | 1.1 µM | 26.2 µM |  | 
2 | COc1ccc2nccc(/C=C/c3ccnc4ccc(OC)cc34)c2c1 | 26.9 µM | 89.2 µM | > 100 µM | > 100 µM | > 100 µM | > 100 µM | > 100 µM | > 100 µM | > 63.4 µM | > 100 µM | 2.39 µM | > 38.5 µM | > 100 µM | > 100 µM | > 100 µM | > 100 µM |  | 
3 | O=C(Nc1cccc(-n2cc(-c3ccncc3)c(-c3ccc(O)c(Cl)c3)n2)c1)c1ccc(Cl)c(Cl)c1 | 4.13 µM | 74.4 µM | 6.55 µM | > 100 µM | 4.12 µM | 31.3 µM | 5.06 µM | > 100 µM | 10.4 µM | > 100 µM | 4.08 µM | > 100 µM | 8.06 µM | > 100 µM | 4.03 µM | 34.2 µM |  | 
4 | CC12CC(Sc3ccccc3N1)c1ccccc1O2 (centres undefined) |  |  |  | 41.9 µM |  | 27.8 µM |  | 33.3 µM |  |  |  |  |  |  |  | 26 µM | 30.9 µM | 28.4 µM
5 | O=C(NC(=O)c1cc2cc(Br)cc(Br)c2oc1=O)Oc1ccccc1 |  |  |  | > 100 µM |  | > 100 µM |  | > 100 µM |  |  |  |  |  | > 100 µM |  | > 100 µM | > 100 µM | > 100 µM
6 | CC(=O)c1cccc(NC(=O)c2ccc(NC3=C(Cl)C(=O)N(Cc4ccccc4)C3=O)cc2)c1 | 2.45 µM | 19.4 µM | 25.8 µM | > 100 µM | 18.7 µM | 72.4 µM | 14.3 µM | 50.7 µM | 8.8 µM | 27.9 µM | 9.34 µM | > 100 µM | 9.9 µM | 28.1 µM | 17.9 µM | 44.5 µM |  | 
7 | FC(F)(F)c1[nH]ncc1-c1nc2ccc3[nH]ncc3c2c2c1CCCC2 | 1.24 µM | 4.77 µM | 1.77 µM | 8.45 µM | 2.67 µM | 8.69 µM | 2.63 µM | 11.9 µM | 1.21 µM | 2.66 µM | 1.67 µM | 10.1 µM | 2.26 µM | 12.4 µM | 2.56 µM | 7.5 µM |  | 
8 | CC(OC(=O)N(N(CCCl)S(C)(=O)=O)S(C)(=O)=O)c1ccc([N+](=O)[O-])cc1 (centres undefined) | 51.4 µM | > 100 µM | > 58.3 µM | > 100 µM | 76.1 µM | > 100 µM | > 100 µM | > 100 µM | 33.8 µM | > 100 µM | 58 µM | > 100 µM | 29.1 µM | 79.3 µM | 42.5 µM | > 100 µM |  | 
